As a reminder, the IC50 is the concentration at which inhibition is half-maximal. As usually defined, the ED50 is the dose at which the effect has come halfway, by size or by number of responders. The low end stands for an effect at a small dose, the high end for a need for a large dose.

The target in data set [1] is muscarinic receptors (smooth muscle of the fundus of the stomach). The experiment in a line: Binding to muscarinic receptors, 3H-N-methylscopolamine displacement, smooth muscle of fundus of stomach. On the set-up: species or system male Sprague-Dawley rats. The following applies: smooth muscle of fundus homogenate 1:100; 0.3 n molar 3H-N-methylscopolamine; 30° C., 45 minutes; pH 7.4; read-out: Receptor binding tests IC50, Smooth Muscle Fundus of Stomach. The method, then: (§1) 3. STUDIES OF BINDING TO MUSCARINIC RECEPTORS: DETERMINATION OF THE IC50 VALUES
(§2) The organ donors were male Sprague-Dawley rats with a body weight of from about 180 to 220 gm each. After the heart, stomach, and cerebral cortex had been removed, the remainder of the operation was carried out in ice-cold Hepes-HCl buffer (pH 7.4; 100 m molar NaCl, 10 m molar MgCl2). The smooth muscle of the fundus of the stomach was separated from the mucous membrane of the stomach and subjected to preliminary homogenization. The whole heart was cut up with scissors. All the organs were then homogenized in a Potter apparatus.
(§3) For the binding test, the homogenized organs were diluted as follows:
Smooth muscle of the fundus of the stomach: 1:100
(§4) The homogenized organ preparations were incubated at a specific concentration of the radioligand and with a series of concentrations of the non-radioactive test substances in an Eppendorf centrifuge tube at 30° C. The duration of incubation was 45 minutes. As substance 0.3 n molar ^3 H-N-methylscopolamine (^3 H-NMS) was used as the radioligand. After incubation had been brought to an end by centrifuging at 14000 g, the radioactivity in the pellet was determined. It represents the sum of the specific and non-specific binding of ^3 H-NMS. The proportion of non-specific binding was defined as the radioactivity which was bound in the presence of 1μ molar quinuclidinylbenzylate. Four measurements were taken in each case. The IC50 values of the non-labelled test substances were determined graphically. They represent the concentration of test substance at which the specific binding of ^3 H-NMS to the muscarinic receptors in the various organs was inhibited by 50%.

In data set [2] the test system is muscarinic receptors (oxotremorine-induced lesions in the mucous membrane of the stomach). The experiment in a line: Oxotremorine test: lesions in the mucous membrane of the stomach (anti-ulcerative effect). It counts as in vivo, female albino rats (Crl:COBS-CD (SD) BR strain). As to conditions: iv; rat, test substance i.v. 15 minutes before oxotremorine 0.62 mg/kg i.v.; neostigmine 1 mg/kg oral. The method, then:
(§5) Oxotremorine, a specific against for muscarinic receptors produces lesions in the mucous membrane of the stomach in rats and increases their secretion of saliva. This test method was chosen so that any selective activity of an antimuscarinic substance on the stomach could be identified.
(§6) Ten female albino rats (of the Crl:COBS-CD (SD) BR strain) with a body weight of from 120 to 150 gm apiece were used in each treatment group and were kept without food for 24 hours before the start of the test but given free access to drinking water.
(§7) To determine, in preliminary tests, the muscarinic effect of oxotremorine on each of the symptons studies, a dosage/activity curve was drawn up with at least three dosages for each symptom.
(§8) When the antimuscarinic substances were tested, the dosage of oxotremorine which triggered the symptom in question in 90 to 100% of the animals in the preliminary tests was used.
Lesions in the mucous membrane of stomach: 0.62 mg/kg i.v.
(§9) Each antimuscarinic substance was administered intravenously in uniformly graduated doses 15 minutes before the oxotremorine was administered. Control groups were given corresponding quantities of the solvent and suspension agent instead of the test substance. Immediately after the oxotremorine was administered, the animals were placed in a glass case for 15 minutes and observed.
The effects on lesions of the nucous membrane of the stomach were evaluated as follows:
The lesions of the gastric mucous membrane were produced by intravenous injection of 0.62 mg/kg of oxotremorine 30 minutes after the oral administration of 1 mg/kg of neostigmine (a cholinesterase inhibitor). Sixty minutes after the administration of the neostigmine, the animals were killed, and the stomachs were removed, opened, and examined for the presence of any lesions in the mucous membrane. The protective effect of the test substances was expressed as the percentage inhibition (percentage of animals with lesions).
The ED50 and ED70 values were determined using the method of LITCHFIELD and WILCOXON (eee above).

The target of data set [3] is T1, muscarinic receptors (whole heart) (Rattus norvegicus, UniProt P10980).
T1 construct: from tissue; host or cells: whole heart of male Sprague-Dawley rats, homogenate
T1 sequence (P10980 1-466): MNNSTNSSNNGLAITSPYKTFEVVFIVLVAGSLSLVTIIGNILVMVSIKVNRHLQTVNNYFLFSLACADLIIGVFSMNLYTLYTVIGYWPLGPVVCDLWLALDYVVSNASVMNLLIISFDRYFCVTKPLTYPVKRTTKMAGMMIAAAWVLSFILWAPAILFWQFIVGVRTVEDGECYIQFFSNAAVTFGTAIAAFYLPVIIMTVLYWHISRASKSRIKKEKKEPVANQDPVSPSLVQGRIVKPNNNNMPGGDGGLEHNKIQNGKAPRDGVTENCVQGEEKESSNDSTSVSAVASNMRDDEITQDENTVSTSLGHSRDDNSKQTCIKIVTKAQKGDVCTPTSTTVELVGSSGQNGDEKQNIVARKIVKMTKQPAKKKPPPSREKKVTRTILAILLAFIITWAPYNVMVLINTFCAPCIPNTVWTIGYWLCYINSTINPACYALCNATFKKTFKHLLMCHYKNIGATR
The experiment in a line: Binding to muscarinic receptors, 3H-N-methylscopolamine displacement, whole heart. Further details: species or system male Sprague-Dawley rats. As to conditions: whole heart homogenate 1:250; 0.3 n molar 3H-N-methylscopolamine; 30° C., 45 minutes; pH 7.4; read-out: Receptor binding tests IC50, Heart. The method, then: as §1, §2, §3
as §4, with “It represents the sum of the specific and non-specific binding of ^3 H-NMS.” left out, “Four measurements were taken in each case.” left out, “They represent the concentration of test substance at which the specific binding of ^3 H-NMS to the muscarinic receptors in the various organs was inhibited by 50%.” left out

Data set [4] in a line: Testing for mydriasis. On the set-up: species or system rats. As to conditions: in vivo, iv; rat; pupil size observed for 10 minutes; blind test. The method, then:
The effect of the test substances on the pupil size in rats was investigated as follows:
The substances were administered intravenously to groups of 10 animals in at least three uniformly graduated doses.

The target of data set [5] is muscarinic receptors (cerebral cortex). In words: Binding to muscarinic receptors, 3H-N-methylscopolamine displacement, cerebral cortex. Further details: species or system male Sprague-Dawley rats. As to conditions: cerebral cortex homogenate 1:3000; 0.3 n molar 3H-N-methylscopolamine; 30° C., 45 minutes; pH 7.4; read-out: Receptor binding tests IC50, Cortex. The protocol:
as §1, §2, §3, §4

Data set [6] relates to muscarinic receptors (oxotremorine-induced secretion of saliva). In words: Oxotremorine test: inhibition of salivation. It counts as in vivo, female albino rats (Crl:COBS-CD (SD) BR strain). The following applies: iv, 0.25 h; rat, test substance i.v. 15 minutes before oxotremorine 0.083 mg/kg i.v.; blind test. The protocol: as §5, §6, §7, §8
Secretion of saliva: 0.083 mg/kg i.v.
as §9
The ED50 values were determined using the method described by LITCHFIELD and WILCOXON (J. Pharmacol. Exp. Ther. 96, 99, 1949).

Take `CN1CCC(OC(=O)N2c3ccccc3NC(=O)c3ccccc32)CC1` [A]: the IC50 was 60 nM in data set [1], 42 nM in data set [3] and 5.5 nM in data set [5]. The ED50 in data set [2] came to 0.0155 mg/kg; in data set [6], 0.064 mg/kg. Also, the ED70 in data set [2] stood at 0.036 mg/kg. This compound also displayed an ED50 at 10 min in data set [4] of 0.071 mg/kg.

As to `CN1CCC(NC(=O)N2c3ccccc3NC(=O)c3ccccc32)CC1` [B], the IC50 in data set [1] was 100 nM; in data set [3] it was 75 nM; in data set [5], 13 nM. Also, the ED50 in data set [2] was found to be 0.0025 mg/kg; in data set [6], 0.022 mg/kg. Further, the ED70 in data set [2] was determined as 0.0048 mg/kg. In addition, it took a dose of 0.023 mg/kg to reach the 50% effect level in data set [4] (ED50 at 10 min).

For the compound `CN1CCN(NC(=O)N2c3ccccc3NC(=O)c3ccccc32)CC1` [C], the half-inhibitory concentration (IC50) in data set [1] worked out at 90 nM; in data set [5], 18 nM. The ED50 amounted to 0.0036 mg/kg in data set [2] and 0.032 mg/kg in data set [6]. This compound also yielded an ED70 in data set [2] of 0.007 mg/kg. The compound further yielded an ED50 at 10 min in data set [4] of 0.0825 mg/kg.

Source of the values: patent US4443452A, “Dibenzodiazepinones, pharmaceutical compositions thereof and method of use thereof” (Dr. Karl Thomae GmbH, priority 1982, dated 1984).
